Source: PMC9120013, “Ribosome inhibition by C9ORF72-ALS/FTD-associated poly-PR and poly-GR proteins revealed by cryo-EM” (Nature Communications, 2022)
Ends that are not written are not given here.

Legend:
[1] = tested on: E. coli 70S ribosomes; assay: Kinetic peptidyl transfer (puromycin) assay on E. coli 70S ribosomes; type: biochemical; settings: 30 nM 70S, 50 µM puromycin, 37 °C; n = 2; read-out: apparent inhibition constant (Ki) of peptidyl transfer
Protocol: The effects of GRn or PRn on peptide bond formation in E. coli ribosome were tested in an in vitro assay that reacts the 70S ribosome loaded with [^35S]-fMet-tRNA^fMet in the P-site with puromycin, an A-site tRNA mimic, and measures the release of the resulting dipeptide containing formyl-methionine covalently bonded to puromycin, as described. E. coli tRNA^fMet (Chemical Block) was aminoacylated with [^35S]-N-formyl-L-methionine (Perkin Elmer) as described. 70S ribosomes were prepared from E. coli (MRE600) as described. 70S ribosomes were stored in the ribosome-storage buffer (20 mM Tris-HCl, pH 7.0; 100 mM NH4Cl; 20 mM MgCl2) at –80 °C. A model mRNA fragment, containing the Shine-Dalgarno sequence and a spacer to position the AUG codon in the P-site and the UUC codon in the A site (GGCAAGGAGGUAAAAAUGUUC AAAAAA), was synthesized by IDT. 70S•mRNA•fMet-tRNA^fMet complexes with GRn (where n = 4, 10 or 20) or PRn (where n = 4, 10, 20 or 40) were formed as follows. 330 nM 70S ribosomes were incubated with 11 µM mRNA in buffer containing 20 mM Tris-acetate (pH 7.0), 100 mM NH4OAc, 12 mM Mg(OAc)2, for 2 min at 37 °C. 730 nM [^35S]-fMet-tRNA^fMet was added and incubated for 5 min at 37 °C. The solution was diluted 9.6-fold with the same buffer, followed by addition of a GRn or PRn repeat peptide (22x relative to its final concentration). The complex was incubated for 5 min at 37 °C prior to addition of puromycin dissolved in the same buffer (see below).
The kinetics of puromycin reaction on the 70S or 80S ribosomes were recorded and analyzed essentially as described. An aliquot (4.5 μl) of the complex prior to addition of puromycin was quenched in 30 μl of saturated MgSO4 in 0.1 M NaOAc to represent the zero-time point. Five microliters of 500 µM puromycin (in the same buffer as that used for the ribosomal complex) was added to 45 μl of the complex to initiate the reaction, yielding estimated final concentrations: 30 nM for the ribosome, 1 µM mRNA, 66 nM [^35S]-fMet-tRNA^fMet, 50 µM puromycin, and varying concentrations of PRn and GRn peptides, from 30 nM to 2 μM. After 6, 15, 30, 90 s, and 5, 15, 30, 60, and (for slower reactions) 180 min, 5-μl aliquots were quenched in 30 μl of saturated MgSO4 in 0.1 M NaOAc. All quenched samples were extracted with 700 μl ethyl-acetate. 600 μl of the extract were mixed with 3.5 ml of Econo-Safe scintillation cocktail (RPI), and the amount of released [^35S]-labeled dipeptide was measured for each time point using a scintillation counter (Beckman Coulter, Inc.).
All time progress curves were recorded in duplicates, using independently prepared 70S or 80S complexes. Reaction rates were calculated using single-exponential or double-exponential (80S complexes) regressions for different concentrations of PRn and GRn using GraphPad Prism 8. Hyperbola fitting in Gnuplot was used to derive apparent Ki-values.

[2] = tested on: ribosomes on endogenous beta-globin mRNA in RRL; assay: Toeprinting of 80S and 4-5-mer polysome fractions on beta-globin mRNA; type: biochemical, rabbit; settings: for Ratio (START to CDS) / Normalized ratio START/ORF: 80S fraction, primer A, Fig. 2f independent repeat; for Normalized ratio START/ORF: no inhibitor = 1; for normalized ratio START to CDS, MEAN: 4-5-mer, primer B, mean of ten 20 bp windows
Protocol: Toeprinting analyses were carried out similarly to those in refs. [51],[74], using 80S and polysome (4–5-some) fractions collected from polysome profiles as described in “Polysome Profiles” except that reactions were doubled in size (200 μL), performed at 37 °C, and were stopped with ice-cold 1xAMV Buffer (50 mM Tris-HCl pH 8.3, 50 mM KCl, 5 mM MgCl2) with 200 μg/ml cycloheximide before being separated on at 10–35% sucrose gradient in 1xAMV buffer with 0.5 mM spermidine and 1 mM DTT. 600 μl of each fraction (80S or 4–5-mer) was supplemented with 10 mM DTT. Then 10 U of AMV reverse transcriptase (Promega), 120 nmol dNTPs, and 120 pmol of a 5'[6-carboxyfluorescein (FAM)]-labeled primer (IDT-DNA) were added. Two primers specific to the endogenous beta-globin mRNA in RRL were used in separate reactions: 5′-(FAM)-GGACTCGAAGAACCTCTG (as in ref. [74]) annealed 136 nucleotides downstream of the AUG or 5′-(FAM)-[…] annealed to the end of the 3'-UTR. Primers were extended at 37 °C for 30 min, and then the reaction were extracted in 1:1 phenol:chloroform, supplemented with 1/10 volume of 3 M sodium acetate pH 5.2, and precipitated with 2.5 volumes of 100% ethanol. Pellets were resuspended in 10 μl of deionized formamide (Applied Biosystems) with 1/20 volume of a 35-500 nucleotide orange-dye labeled DNA size standard (MCLab) and loaded onto a 96-well plate. The samples were sent for fragment analysis by capillary electrophoresis to the UMass Chan Medical School Molecular Biology Core Laboratory using an ABI3730XL DNA Fragment Analyzer with capillaries loaded with POP-7 polymer and with an injection voltage of 12.5 kV. Data collection was performed with GeneMapper software (ABI). Data were exported as.fsa files and were analyzed (aligning to ladder and background correction) in GeneMarker 3.0.1 software (SoftGenetics) running in demo mode. Screen captures of traces were taken and traces were integrated using the “Quantification” feature and manually adjusting sliders to include the desired nucleotide range.

| Compound | Ki [1] [nM] | site of ribosome accumulation, toe-printing of polysome fractions [2] | Ratio (START to CDS) [2] | Normalized ratio START/ORF [2] | normalized ratio START to CDS, MEAN ([2]; Fig. 2g) | normalized ratio START to CDS, MEAN ([2]; Fig. 2h independent repeat) |
| --- | --- | --- | --- | --- | --- | --- |
| N=C(N)NCCC[C@H](NC(=O)CNC(=O)[C@H](CCCNC(=N)N)NC(=O)CNC(=O)[C@H](CCCNC(=N)N)NC(=O)CNC(=O)[C@H](CCCNC(=N)N)NC(=O)CNC(=O)[C@H](CCCNC(=N)N)NC(=O)CNC(=O)[C@H](CCCNC(=N)N)NC(=O)CNC(=O)[C@H](CCCNC(=N)N)NC(=O)CNC(=O)[C@H](CCCNC(=N)N)NC(=O)CNC(=O)[C@H](CCCNC(=N)N)NC(=O)CNC(=O)[C@H](CCCNC(=N)N)NC(=O)CNC(=O)[C@H](CCCNC(=N)N)NC(=O)CNC(=O)[C@H](CCCNC(=N)N)NC(=O)CNC(=O)[C@H](CCCNC(=N)N)NC(=O)CNC(=O)[C@H](CCCNC(=N)N)NC(=O)CNC(=O)[C@H](CCCNC(=N)N)NC(=O)CNC(=O)[C@H](CCCNC(=N)N)NC(=O)CNC(=O)[C@H](CCCNC(=N)N)NC(=O)CNC(=O)[C@H](CCCNC(=N)N)NC(=O)CNC(=O)[C@H](CCCNC(=N)N)NC(=O)CNC(=O)[C@H](CCCNC(=N)N)NC(=O)CN)C(=O)O [GR20] | 164 ± 31 | accumulate within the open reading frame | 1.504 | 0.5576 | 0.4196 | 0.5964 |
| PRPRPRPRPRPRPRPRPRPRPRPRPRPRPRPRPRPRPRPR [PR20] | 44 ± 9 | accumulate at the start codon | 5.983 | 2.218 | 2.067 | 3.436 |
